Measurements taken from patent US9381148B2, “Composition comprising particulate zinc material with a high relative zinc lability” (priority 2003, dated 2016).
Where two headings read alike, the source gives them in different places.

Key:
[1] = zinc salt of the counterion; reference A, selected literature data for 25–30° C.; cited from earlier work
[2] = Text: Those materials with high potential to bind to the PZM surface are ZBM's that form only sparingly soluble salts with zinc in water. “Sparingly soluble” refers to zinc salts with 1 gram(g)/100 g water solubility or less. These are the materials that form precipitated surface species on the PZM that interfere with zinc lability. A summary of the solubilities of common zinc salts is shown below: […]

Compound: [O-][Cl+3]([O-])([O-])O [Perchlorate]
- Solubility (g/100 g water) [1]: 113.5 g/100 g water

Compound: O=C(O)c1ccccc1O [Salicylate]
- Solubility (g/100 g water) ([2]; pH 7): 0.29 g/100 g water

Compound: Laurate
- Solubility (g/100 g water) ([2]; zinc salt of the counterion, reference B, commercially sourced materials (Pfaltz & Bauer), water at pH 7 and room temperature, filtered, ICP): 0.012 g/100 g water

Compound: Phosphate
- Solubility (g/100 g water) ([2]; pH 7): 0.0013 g/100 g water
